Reference: patent US20040209849A1, “Use of effectors of the central cholinergic nervous system for treatment of delirium” (priority 1998, published 2004)

System: non-anticholinergic delirium (lithium poisoning, severe hyperactive delirium)
Assay: Individual case: treatment of a non-anticholinergic (lithium poisoning) delirium with orally administered rivastigmine
Format: in vivo, human
Conditions: patient, after 48 hours of therapy at 2×1.5 mg
From the text: Treatment of a non-anticholinergic delirium with an orally administered modern inhibitor of acetylcholine esterase, rivastigmine
A patient had suffered from manic-depressive disease. Until recently there were no mental disintegration phenomena. After a urinary tract infection with lithium therapy of the manic-depressive condition, lithium poisoning occurred with a severe hyperactive delirium which forced the patient to be admitted to a hospital on an in-patient ward. These lithium poisoning deliria generally subside completely only after 6-8 weeks. The patient was transferred to a private clinic after 4 days and was highly psychotic, urinated in the corner of the room, talked to the lamp on the night table, hallucinated strange individuals and dwarves in the room, repeatedly fled the ward, believed that the nursing personnel wanted to kill them, was extremely agitated in motor response and restless, fumbled around with the blanket and phone cord, fell asleep repeatedly during the day, but remained up all night. The patient cried and laughed in alternation, suddenly became afraid again and again and then laughed. All these symptoms were very unstable, highly varied, but the patient was not actually responsive on the admission date. On the Trzepacz scale of delirium (Psychiatry Research, 23, (1988), […]) a score of 29 (of a possible 32) corresponding to a severe delirium was reached. […]

CCN(C)C(=O)Oc1cccc([C@H](C)N(C)C)c1 [rivastigmine]
clinical state after therapy: the patient was oriented, no longer hallucinated | delirium score on the Trzepacz scale of delirium (score before therapy 29 (of a possible 32)): 8
